Experiment: Tacrolimus tissue pharmacokinetics, oral versus intra-cecal ingestible device delivery
Type: in vivo, Yorkshire-Cross farm swine
Conditions: swine, intra-cecal as compared to oral, 12 hours post-dose
Method: The primary objective of this study was to compare the tissue, plasma, rectal sample, and GI content pharmacokinetics of tacrolimus through oral versus intra-cecal ingestible device delivery in normal Yorkshire-Cross farm swine.
No further randomization procedure was employed.
Animals in Group 1 received an ingestible device containing 0.8 mL of vehicle solution (80% alcohol, 20% HCO-60). Animals in Group 2 received orally […] liquid formulation of tacrolimus at 4 mg/0.8 mL per animal (Prograf: 5 mg/mL). Animals in Group 3 received intra-cecally an ingestible device containing tacrolimus at 1 mg in 0.8 mL per ingestible device. […]
Approximately 200˜400 mg of rectal content were collected, if available, with a fecal swab (Copan Diagnostics Nylon Flocked Dry Swabs, 502CS01). The fecal swab was pre-weighed and weighed after collection in the collection tube (Sterile Tube and Cap No Media, PFPM913S), and the sample weight was recorded. […]
For tissue necropsy, small intestine fluid and cecal fluid were collected separately from all the animals into two separate square plastic bottles, and stored at −20° C. The length and diameter of the cecum and the colon was measured from one animal in each group and recorded for reference. […] All samples were weighed, and the tissue sample weights were recorded. […]

## C=CC[C@@H]1/C=C(\C)C[C@H](C)C[C@H](OC)[C@H]2O[C@@](O)(C(=O)C(=O)N3CCCC[C@H]3C(=O)O[C@H](/C(C)=C/[C@@H]3CC[C@@H](O)[C@H](OC)C3)[C@H](C)[C@@H](O)CC1=O)[C@H](C)C[C@@H]2OC [tacrolimus]
  mean concentration in the cecum tissue and the proximate colon tissue (FIG. 76): higher
